Data published in patent US20020155496A1, “Saturated and unsaturated abietane derivatives, derived conjugates and uses in a diagnostic composition, a reagent and a device” (priority 1998, published 2002).

Tested on: anti-abietic acid antibody
Experiment: Competition ELISA assay with natural hormones (crossreaction of anti-abietic acid antibody)
Assay type: binding, mouse
Details: for inhibition / crossreaction in competition ELISA: increasing concentrations of hormone in 5 μg/ml anti-abietic acid antibody, abietic acid-ODN antigen phase, read at 492 nm
Procedure: The antigen phase was obtained as described in Example 11, and then increasing concentrations of hormone dissolved in a 5 μg/ml solution of anti-abietic acid antibody in PBS-Tween containing 10% by volume of horse serum are incubated for one hour at 37° C. After washes with PBS-Tween, an anti-mouse antibody antibody coupled to peroxidase, in solution in PBS-Tween-horse [lacuna] is incubated for one hour at 37° C. After washes, the enzymatic substrate, o-phenylenediamine, is added. The colorimetric reaction is stopped by adding 1N sulfuric acid. The intensity of the coloration is read at 492 nm on a bioMérieux Axia Micro-reader.

SMILES | inhibition (concentration of 0.33 μmol/ml of hormone) | inhibition / crossreaction in competition ELISA
N[C@@H](Cc1cc(I)c(Oc2cc(I)c(O)c(I)c2)c(I)c1)C(=O)O [Example T4] | 25% | crossreaction is observed
CC(=O)[C@H]1CC[C@H]2[C@@H]3CCC4=CC(=O)CC[C@]4(C)[C@H]3CC[C@]12C [progesterone] |  | no inhibition
C[C@]12CC[C@H]3[C@@H](CCC4=CC(=O)CC[C@@]43C)[C@@H]1CC[C@@H]2O [testosterone] |  | no inhibition
